Values joined by “and” are separate entries in the source; they are usually repeats but may differ in a detail not shown here. Equal values may be shown once.
Columns and labels:
[1] = Blood chemistry (plasma hormones by ELISA); type: in vivo, mouse
Procedure: The plasma hormone levels of insulin and ghrelin were measured by ELISA kits from Millipore, glucagon and leptin were determined by ELISA kits from R&D.

LXRα = assay: Immunoblot of LXRα in insulin-stimulated primary hepatocytes; type: cell-based, mouse; conditions: for relative LXRa protein: individual replicates, Supp. Fig.6 b; for relative LXRa protein, mean: N=3
Procedure: 3 Supplementary Figure 6. APC inhibited transcription induced by half-CRE in the promoters of
5 a) Immunoblot of LXRa protein levels in primary hepatocytes stimulated with insulin (100 nM) for
6 indicated times (0–18 h). One presentative result from three experiments is shown here. Relative
7 LXRa protein level normalized to GAPDH shown as a bar graph (b). Data are represented as
8 mean ± SEM (n=3 per treatment). *, p < 0.05; **, p < 0.01; p values were determined by two-way […]
(1 picture or pasted object on this page, not shown here)

Pharmacokinetic studies = type: in vivo, mouse; conditions: ICR mice; for half-life: ICR
Procedure: Male ICR mice (18–20 g, n = 3 in each group) were randomly assigned to treatment groups. After 12-h of fasting, baseline blood was collected into a tube containing ethylenediaminetetraacetic acid (EDTA). Animals were then treated orally with compound A57 or APC (p.o.: 20 mg/kg, in DMSO/0.5% HPMC 5/95, v/v) and intravenous injected the selected compounds (i.v.: 2 mg/kg, in DMSO/EtOH/PEG300/NaCl 5/5/40/50, v/v/v/v). Subsequently, blood samples per mouse were collected at 0.25, 0.5, 1, 2, 4, 8, 24 h for p.o.-treated groups and 0.05, 0.25, 0.75, 2, 4, 6, 8, 24 h for i.v.-treated groups. All samples were centrifuged at 12,000 rpm for 3 min, and the plasma was harvested. Aliquots of plasma samples were stored at −80 °C until analysis. The selected compounds' serum concentrations were determined by liquid chromatography/tandem mass spectrometry (LC–MS–MS). Pharmacokinetic parameters were determined from the selected compounds' serum concentrations by noncompartmental methods using WinNonLin professional version 4.1 (Pharsight Corp., Mountain View, CA).

mouse Per2 promoter = assay: Per2-Luc reporter (CREB/CRTC2-mediated transcription of PER2); type: cell-based; conditions: preliminary research
Procedure: SREBP1 (m-SREBP1) and fat acid synthase (FASN) in glucagon- insulin treated cells, […]
mTORC1 activity at the same time. mTORC1 h as been reported to enh ance SREBP1c mediated lipogenesis m ainly by increasing the mat uration of SREBP1c prot eins (2015, The CREB coactivator CRTC2 controls hepatic lipid metabolism by regulating S REBP1, Nature, […]
Aug 13;524(7564):243- 6.). […]
hyperactivation caused by liver specific TSC1 deletion is insufficient to induce SREBP1c activation and de novo lipogenesis in the liver of high fat diet fed mice (Akt stimulates hepatic SREBP1c and lipogenesis through parallel mTORC1- dependent and independent pathways. Cell Metabolism . 2011. 14.1: 21- 32). Considered the requirement of TSC1 for PER2 to inhibit mTORC1 activity, the reduction of PER2 by APC may not be sufficient to induce SREBP1c activati on. Moreover, ou r dat a su ggest that APC redu ces the trans cription of SREBP1c in vivo (Figures 5b and 5g) , which would result in the decrease of whole SREBP1c protein levels and overcom e the effect on lipogenesis caused by APC activation of mTORC1. […]
Data are repres ented as mean ± SEM (n=4). *, p < 0.05; **, p< 0.01. pval ues wer e determined by one-way ANOVA followed Dunnett’s multiple comparisons test (Left).
The over-expr essed proteins FLAG- CREB and HA-CRTC2-171A were detected in the lysates of the luciferase reporter assay by immunoblotting (Right). […]

PPARα, RXRα or LXRα = assay: PPRE-LUC reporter in HEK293T; type: cell-based; conditions: for relative PPRE-LUC: individual replicates, Supp. Fig.6 c; for relative PPRE-LUC, mean: N=3
Procedure: 1 c) Luciferase reporter activity of PPRE-LUC (PPAR response element driven luciferase reporter) in
2 HEK293T cell transfected with expression plasmids for Ppara, Rxra or Lxra with 8-h incubation of
3 APC (10 µM). One of three independent experiments presented here. Data are represented as
4 mean ± SEM. (n=3 per treatment). *, p < 0.05; **, p < 0.01; p values were determined by two-way

[2] = DIO mice, APC 10mg/kg, group mean, n=6
[3] = DIO mice, APC 10mg/kg, individual mouse
[4] = DIO mice, APC 20mg/kg, individual mouse
[5] = male, mouse, plasma, iv, i.v. 2 mg/kg
[6] = male, mouse, plasma, po, p.o. 20 mg/kg

Compound: CC(C)=CCc1cc(C=CC(=O)O)cc(CC=C(C)C)c1O [APC, 3,5-diprenyl-4-hydroxycinnamic acid]
- plasma insulin and glucagon levels ([1]; DIO and db/db mice): without a change
- leptin levels ([1]; DIO mice): not significant
- plasma glucagon in DIO, mean [1, 2]: 109 ng/dL
- plasma leptin in DIO, mean [1, 2]: 54.89 ng/mL
- plasma glucagon in DIO [1, 3]: 116.57 ng/dL and 100.35 ng/dL and 100.46 ng/dL and 94.57 ng/dL and 118.78 ng/dL and 123.34 ng/dL
- plasma leptin in DIO [1, 3]: 54.49 ng/mL and 52.07 ng/mL and 53.5 ng/mL and 46.64 ng/mL and 59.49 ng/mL and 63.13 ng/mL
- plasma glucagon in DIO, mean ([1]; DIO mice, APC 20mg/kg, group mean, n=6): 102.8 ng/dL
- plasma glucagon in DIO [1, 4]: 108 ng/dL and 94.83 ng/dL and 125.84 ng/dL and 81.38 ng/dL and 93.2 ng/dL and 113.74 ng/dL
- plasma leptin in DIO [1, 4]: 64.99 ng/mL and 59.47 ng/mL and 49.46 ng/mL and 54.02 ng/mL and 54.7 ng/mL and 57.91 ng/mL
- Plasma Insulin, mean ([1]; Figure 8e, APC 10mg/kg, group mean, n=5, VEH mean 5.378): 4.88 ng/mL
- Plasma Insulin ([1]; Figure 8e, APC 10mg/kg, individual mice): 5.624 ng/mL and 3.217 ng/mL and 4.483 ng/mL and 6.089 ng/mL and 4.987 ng/mL
- Plasma Insulin, mean ([1]; Figure 8e, APC 20mg/kg, group mean, n=5, VEH mean 5.378): 4.334 ng/mL
- Plasma Insulin ([1]; Figure 8e, APC 20mg/kg, individual mice): 3.191 ng/mL and 4.624 ng/mL and 5.384 ng/mL and 4.549 ng/mL and 3.923 ng/mL
- leptin levels ([1]; db/db mice): effectively reduced
- plasma ghrelin ([1]; db/db mice): no significant effects
- Plasma Insulin, mean ([1]; db/db mice, group mean, n=6): 12.2 ng/mL
- plasma glucagon in db/db, mean ([1]; db/db mice, group mean, n=6): 266 ng/dL
- Plasma Insulin ([1]; db/db mice, individual mouse): 9.327 ng/mL and 11.259 ng/mL and 11.886 ng/mL and 10.188 ng/mL and 13.359 ng/mL and 17.190 ng/mL
- plasma glucagon in db/db ([1]; db/db mice, individual mouse): 251.14 ng/dL and 274.24 ng/dL and 342.64 ng/dL and 244.9 ng/dL and 187.78 ng/dL and 295.42 ng/dL
- plasma Ghrelin in db/db ip APC ([1]; db/db mice, ip APC, single animals): 12.653 ng/mL and 14.269 ng/mL and 10.885 ng/mL and 7.483 ng/mL and 8.587 ng/mL
- Plasma leptin, mean of column B (APC) ([1]; db/db mice, group mean (Figure 8l), n=5, VEH mean 1.196): 0.714 ng/mL
- Plasma leptin ([1]; db/db mice, individual animals (Figure 8l), n=5): 0.7357 ng/mL and 0.6738 ng/mL and 0.8588 ng/mL and 0.5919 ng/mL and 0.7100 ng/mL
- relative LXRa protein (LXRα; Insulin 0h): 101.09 and 100.00 and 97.00
- relative LXRa protein, mean (LXRα; Insulin 0h): 99.36
- relative LXRa protein (LXRα; Insulin 3h): 65.50 and 69.00 and 75.00
- relative LXRa protein, mean (LXRα; Insulin 3h): 69.83
- relative LXRa protein, Mean Diff. 3h vs. 0h (LXRα; Insulin 3h minus 0h, within APC group): -29.53
- relative LXRa protein (LXRα; Insulin 18h): 33.42 and 31.00 and 29.00
- relative LXRa protein, mean (LXRα; Insulin 18h): 31.14
- relative LXRa protein, Mean Diff. 18h vs. 0h (LXRα; Insulin 18h minus 0h, within APC group): -68.22
- LXRα protein levels (LXRα; primary hepatocytes, insulin treatment 18-h): significantly reduced
- Fpo (Pharmacokinetic studies; p.o. 20 mg/kg vs i.v. 2 mg/kg): 14.4%
- T1/2 (Pharmacokinetic studies; p.o. 20 mg/kg, 20 mg/kg): 3.29 h
- half-life (Pharmacokinetic studies; male, mouse, plasma, iv, 2 mg/kg, i.v. 2 mg/kg): 5.89 h
- half-life (Pharmacokinetic studies; male, mouse, plasma, po, 20 mg/kg, p.o. 20 mg/kg): 2.11 h
- AUC(0-t) (Pharmacokinetic studies; [5]): 428 ng·h/mL
- MRT (Pharmacokinetic studies; [5]): 2.46 h
- clearance (Pharmacokinetic studies; [5]): 78 mL/min/kg
- AUC(0-t) (Pharmacokinetic studies; [6]): 616 ng·h/mL
- Cmax (Pharmacokinetic studies; [6]): 510 ng/mL
- MRT (Pharmacokinetic studies; [6]): 4.33 h
- Tmax (Pharmacokinetic studies; [6]): 0.25 h
- CREB/CRTC2-mediated transcription of PER2 (mouse Per2 promoter): reduced
- activity of PPRE-luc induced by PPARα, RXRα or LXRα (PPARα, RXRα or LXRα; HEK293T, APC 10 µM, 8-h): did not alter
- relative PPRE-LUC, Mean Diff. APC - Ctrl (PPARα, RXRα or LXRα; overexpressed gene: LXRa): 0.2098
- relative PPRE-LUC (PPARα, RXRα or LXRα; overexpressed gene: LXRa): 3.9435 and 4.3354 and 5.6775
- relative PPRE-LUC, mean (PPARα, RXRα or LXRα; overexpressed gene: LXRa): 4.652
- relative PPRE-LUC, Mean Diff. APC - Ctrl (PPARα, RXRα or LXRα; overexpressed gene: PPARa): -2.353
- relative PPRE-LUC (PPARα, RXRα or LXRα; overexpressed gene: PPARa): 39.2490 and 43.4175 and 53.1308
- relative PPRE-LUC, mean (PPARα, RXRα or LXRα; overexpressed gene: PPARa): 45.27
- relative PPRE-LUC, Mean Diff. APC - Ctrl (PPARα, RXRα or LXRα; overexpressed gene: RXRa): 3.509
- relative PPRE-LUC (PPARα, RXRα or LXRα; overexpressed gene: RXRa): 53.5690 and 51.6829 and 53.7514
- relative PPRE-LUC, mean (PPARα, RXRα or LXRα; overexpressed gene: RXRa): 53
- relative PPRE-LUC, Mean Diff. APC - Ctrl (PPARα, RXRα or LXRα; overexpressed gene: pcDNA): -0.0701
- relative PPRE-LUC (PPARα, RXRα or LXRα; overexpressed gene: pcDNA): 0.7140 and 0.9259 and 1.1498
- relative PPRE-LUC, mean (PPARα, RXRα or LXRα; overexpressed gene: pcDNA): 0.9299

Reference: article PMC8752738, “A propolis-derived small molecule ameliorates metabolic syndrome in obese mice by targeting the CREB/CRTC2 transcriptional complex” (Nature Communications, 2022)
